What was measured:
[1] = tested on: histone deacetylase; test: in vitro inhibition of histone deacetylase by HDAC inhibitor screening kit (Biovision K340-100); type: biochemical
Experimental: An assay for determining the in vitro inhibition activity of the compound on histone deacetylase is conducted according to the specification of HDAC inhibitor screeing kid (Biovision Company/Catalog #K340-100). […]

[2] = tested on: Hut78 T-cell Leukemia cell; test: CCK-8 proliferation inhibition, Hut78; type: cell-based; settings: for inhibition at 10 µM / inhibition at 100 µM: Homo sapiens, read-out: Hut-78 (inhibition %); for inhibition at 10 µM: HuT78, 10 μM; for inhibition at 100 µM: HuT78, 100 μM
Experimental: (§1) Detecting the inhibition rate of the compound concentrations of 100 μM and 10 μM to Hut78 T-cell Leukemia cell, Jurkat E6-1 human T-cell lymphoma, PANC-1 human pancreatic cancer cells, A549 human lung cancer cells, K562 human chronic myeloid leukemia cells, Hep3B2.1-7 human liver cancer cells, MDA-MB-435s human breast cancer cells, Colo320 human rectal cancer cells and PC-3 human prostate cancer using CCK-8 method.

[3] = tested on: PANC-1 human pancreatic cancer cells; test: CCK-8 proliferation inhibition, PANC-1; type: cell-based; settings: for inhibition at 10 µM / inhibition at 100 µM: Homo sapiens; for inhibition at 10 µM: PANC-1, 10 μM; for inhibition at 100 µM: PANC-1, 100 μM
Experimental: as §1

[4] = tested on: Jurkat E6-1 human T-cell lymphoma; test: CCK-8 proliferation inhibition, Jurkat E6-1; type: cell-based; settings: for inhibition at 10 µM / inhibition at 100 µM: Homo sapiens; for inhibition at 10 µM: Jurkat E6.1, 10 μM; for inhibition at 100 µM: Jurkat E6.1, 100 μM
Experimental: as §1

[5] = tested on: K562 human chronic myeloid leukemia cells; test: CCK-8 proliferation inhibition, K562; type: cell-based; settings: for inhibition at 10 µM / inhibition at 100 µM: Homo sapiens; for inhibition at 10 µM: K562, 10 μM; for inhibition at 100 µM: K562, 100 μM
Experimental: as §1

[6] = tested on: A549 human lung cancer cells; test: CCK-8 proliferation inhibition, A549; type: cell-based; settings: CCK-8 method; for inhibition at 10 µM / inhibition at 100 µM: Homo sapiens, A549
Experimental: as §1

[7] = tested on: MDA-MB-435s human breast cancer cells; test: CCK-8 proliferation inhibition, MDA-MB-435s; type: cell-based; settings: CCK-8 method; for inhibition at 10 µM / inhibition at 100 µM: Homo sapiens, MDA-MB-435S
Experimental: as §1

[8] = tested on: Hep3B2.1-7 human liver cancer cells; test: CCK-8 proliferation inhibition, Hep3B2.1-7; type: cell-based; settings: CCK-8 method; for inhibition at 10 µM / inhibition at 100 µM: Homo sapiens, Hep3B
Experimental: as §1

[9] = tested on: PC-3 human prostate cancer; test: CCK-8 proliferation inhibition, PC-3; type: cell-based; settings: CCK-8 method; for inhibition at 10 µM / inhibition at 100 µM: Homo sapiens
Experimental: as §1

[10] = tested on: Colo320 human rectal cancer cells; test: CCK-8 proliferation inhibition, Colo320; type: cell-based; settings: CCK-8 method; for inhibition at 10 µM / inhibition at 100 µM: Homo sapiens, COLO 320
Experimental: as §1

| Molecule | Inhibition rate(%) ([1]; 3.91 μM) | Inhibition rate(%) ([1]; 62.5 μM) | Inhibition rate(%) ([1]; 2 mM) | inhibition at 10 µM [2] | inhibition at 100 µM [2] | inhibition at 10 µM [3] | inhibition at 100 µM [3] | inhibition at 10 µM [4] | inhibition at 100 µM [4] | inhibition at 10 µM [5] | inhibition at 100 µM [5] | inhibition at 10 µM ([6]; compound concentration 10 μM) | inhibition at 100 µM ([6]; compound concentration 100 μM) | inhibition at 10 µM ([7]; compound concentration 10 μM) | inhibition at 100 µM ([7]; compound concentration 100 μM) | inhibition at 10 µM ([8]; compound concentration 10 μM) | inhibition at 100 µM ([8]; compound concentration 100 μM) | inhibition at 10 µM ([9]; compound concentration 10 μM) | inhibition at 100 µM ([9]; compound concentration 100 μM) | inhibition at 10 µM ([10]; compound concentration 10 μM) | other results |
| --- | --- | --- | --- | --- | --- | --- | --- | --- | --- | --- | --- | --- | --- | --- | --- | --- | --- | --- | --- | --- | --- |
| Nc1cnccc1NC(=O)c1ccc(CNC(=O)OCc2ccccc2)cc1 [V-7] | 9.5% | 36.0% | 78.2% | 18.2% | 72.9% | 5.7% | 5.5% | 27.1% | 96% | 51% | 85.1% | -7.8% | 72.3% | 4.5% | 85.5% | -12.3% | 59.2% | 0.6% | 36.9% | -7.1% | inhibition at 100 µM ([10]; compound concentration 100 μM): 47.2% |
| N-(2-amino-3-pyridyl)-4-[(4-methoxybenzyloxyacyl)aminomethyl]benzamide [V-11] | 6.5% | 22.1% | 39.2% |  |  |  |  |  |  |  |  |  |  |  |  |  |  |  |  |  | Hut-78 (inhibition %) ([2]; 10 μM): 10.7%; Hut-78 (inhibition %) ([2]; 100 μM): 60.3%; PANC-1 (inhibition %) ([3]; 10 μM): 1.1%; PANC-1 (inhibition %) ([3]; 100 μM): 35.2%; Jurkat E6-1 (inhibition %) ([4]; 10 μM): 26.4%; Jurkat E6-1 (inhibition %) ([4]; 100 μM): 91.0%; K562 (inhibition %) ([5]; 10 μM): 29.7%; K562 (inhibition %) ([5]; 100 μM): 82.6%; A549 (inhibition %) ([6]; compound concentration 10 μM): −7.4%; A549 (inhibition %) ([6]; compound concentration 100 μM): 24.9%; 435s(inhibition %) ([7]; compound concentration 10 μM): −16.5%; 435s(inhibition %) ([7]; compound concentration 100 μM): 85.4%; Hep3B (inhibition %) ([8]; compound concentration 10 μM): 8.1%; Hep3B (inhibition %) ([8]; compound concentration 100 μM): 53.2%; PC-3 (inhibition %) ([9]; compound concentration 10 μM): 8.1%; PC-3 (inhibition %) ([9]; compound concentration 100 μM): 49.8%; Colo320 (inhibition %) ([10]; compound concentration 10 μM): 8.9%; Colo320 (inhibition %) ([10]; compound concentration 100 μM): 48.5% |
| COc1cc(CCC(=O)NCc2ccc(C(=O)Nc3cccnc3N)cc2)cc(OC)c1OC [V-54, N-(2-amino-3-pyridyl)-4-[3-(3,4,5-methoxyphenyl)propionylaminomethyl]benzamide] | 2.2% | 3.1% | 42.5% |  |  |  |  |  |  |  |  |  |  |  |  |  |  |  |  |  | Hut-78 (inhibition %) ([2]; 10 μM): 0.9%; Hut-78 (inhibition %) ([2]; 100 μM): 10.6%; PANC-1 (inhibition %) ([3]; 10 μM): 15.6%; PANC-1 (inhibition %) ([3]; 100 μM): 11.7%; Jurkat E6-1 (inhibition %) ([4]; 10 μM): 2.9%; Jurkat E6-1 (inhibition %) ([4]; 100 μM): 5.8%; K562 (inhibition %) ([5]; 10 μM): 12.7%; K562 (inhibition %) ([5]; 100 μM): 13.1%; A549 (inhibition %) ([6]; compound concentration 10 μM): 7.5%; A549 (inhibition %) ([6]; compound concentration 100 μM): 12.8%; 435s(inhibition %) ([7]; compound concentration 10 μM): 14.6%; 435s(inhibition %) ([7]; compound concentration 100 μM): 14.0%; Hep3B (inhibition %) ([8]; compound concentration 10 μM): 4.2%; Hep3B (inhibition %) ([8]; compound concentration 100 μM): 4.7%; PC-3 (inhibition %) ([9]; compound concentration 10 μM): 5.6%; PC-3 (inhibition %) ([9]; compound concentration 100 μM): 5.9%; Colo320 (inhibition %) ([10]; compound concentration 10 μM): 6.8%; Colo320 (inhibition %) ([10]; compound concentration 100 μM): 2.7% |
| Nc1cnccc1NC(=O)c1ccc(CNC(=O)/C=C/c2ccccc2)cc1 [V-26] | 24.8% | 56.8% | 58.6% | 39.9% | 82.3% | 0.9% | 23.9% | 76.6% | 95.7% | 58.5% | 87.5% | 9.5% | 79.1% | 22.7% | 81.4% | 13.8% | 75.1% | 45.2% | 72.2% | 7.7% | inhibition at 100 µM ([10]; compound concentration 100 μM): 56.3% |
| Nc1ncccc1NC(=O)c1ccc(CNC(=O)OCc2ccccc2)cc1 [V-8, N-(2-amino-3-pyridyl)-4-(benzyloxyacylaminomethyl)benzamide] | 6.3% | 10.3% | 35.3% | 6.4% | 15.8% | 14.4% | 11.9% | 5.4% | 23.7% | -1.3% | 38.1% | -43.9% | -19.4% | -20.7% | -10.4% | -10.2% | -12.1% | 5.2% | 15.9% | 7.1% | inhibition at 100 µM ([10]; compound concentration 100 μM): 16.8% |
| Nc1cnccc1NC(=O)c1ccc(CNC(=O)/C=C/c2ccc([N+](=O)[O-])cc2)cc1 [V-38] | 24.2% | 55.2% | 76.1% | 39.6% | 86.9% | 5.1% | 40.8% | 76.9% | 95.1% | 54% | 88.2% | 4.2% | 63.7% | 16.6% | 73.6% | 11.7% | 63.5% | 8.7% | 52.6% | -0.2% | inhibition at 100 µM ([10]; compound concentration 100 μM): 44.4% |
| COc1ccc(COC(=O)NCc2ccc(C(=O)Nc3ccncc3N)cc2)cc1OC [V-96] | 14.0% | 42.2% | 85.0% | -0.4% | 41.7% | -0.4% | 64.8% | 15.4% | 83.4% | 41.1% | 61.6% | -6.2% | 33.4% | 1.9% | 69.6% | -0.9% | 35.2% | 27.8% | 53.3% | -0.8% | inhibition at 100 µM ([10]; compound concentration 100 μM): 27% |
| COc1ccc(/C=C/C(=O)NCc2ccc(C(=O)Nc3cccnc3N)cc2)cc1OC [V-93, N-(2-amino-3-pyridyl)-4-[(3,4-dimethoxycinnamoyl)aminomethyl]benzamide] | 14.3% | 48.0% | 55.3% | 27.2% | 64.7% | 9.8% | 16.6% | 23.4% | 93.1% | 23.7% | 67.3% | -2.5% | 3.4% | 16.3% | 48.5% | 4.9% | 26.8% | 41.6% | 80.6% | 6.1% | inhibition at 100 µM ([10]; compound concentration 100 μM): 13.1% |
| COc1cc(COC(=O)NCc2ccc(C(=O)Nc3ccncc3N)cc2)cc(OC)c1OC [V-14] | 12.0% | 32.9% | 77.2% | 8.1% | 47.5% | 13% | 19% | 25.3% | 72.8% | 45% | 62.1% | -4.4% | 40.1% | 9.4% | 82.9% | 3.7% | 31.3% | 13.7% | 57.4% | 6.4% | inhibition at 100 µM ([10]; compound concentration 100 μM): 23.3% |
| COc1cccc(/C=C/C(=O)NCc2ccc(C(=O)Nc3cccnc3N)cc2)c1 [V-91, N-(2-amino-3-pyridyl)-4-[(3-methoxycinnamoyl)aminomethyl]benzamide] | 10.1% | 47.8% | 81.8% | 26.8% | 68.3% | 2.4% | 8.5% | 23.7% | 89.9% | 37.4% | 81.6% | 17.7% | 48.9% | 25.9% | 71.2% | 7.8% | 63.6% | 7.9% | 24.2% | 9.6% | inhibition at 100 µM ([10]; compound concentration 100 μM): 27.6% |

From patent US8889876B2, “Histone deacetylase inhibitors and uses thereof” (Jiangsu Hengyi Pharmaceutical Co., Ltd., priority 2008, dated 2014)
